Experimental data taken from US8530513B1, “Pharmaceutical uses of diterpene excavatolide B from a coral or an analogue thereof” (National Sun Yat-Sen University, priority 2012, dated 2013).

Legend:
[1] = system: abdominal skins of female C57BL/6 mice; experiment: TPA-induced edema, H&E-stained skin sections; assay type: in vivo, mouse; settings: topical 1 mg/site for 6 h after TPA
Method: Mice were treated or not treated topically on their shaven abdomens with acetone (vehicle only) or TPA (10 nmol in 200 μl acetone/site) for 6 h or treated first with TPA for 10 min, then with the indicated concentrations of BrD1 for 6 h. Mice were killed by cervical dislocation. Abdominal skin tissues were collected, fixed with formalin buffer and embedded in paraffin. Tissue sections ([…]) were cut and laid onto silanized glass slides and deparaffinized three times with xylene for 5 min each prior to rehydration using a graded alcohol bath. For hematoxyline and eosin staining, the sections were stained with hematoxyline and eosin staining. For immunohistochemical staining, the deparaffinized sections were boiled in 10 mM citrate buffer (pH 6.0) for 10 min for antigen retrieval and rinsed with PBS containing 0.05% Tween-20 buffer for 5 min. The sections were treated with 3% hydrogen peroxide in methanol for 15 min to decrease non-specific binding. […] Subsequently, peroxidase-binding sites were determined by staining with 3,3′-diaminobenzidine tetrahydrochloride (Dako). […]
Since increased vascular permeability is one of factors contributing to the formation of edema, we next evaluated whether BrD1 inhibited formation of edema in TPA-induced inflammation by examining H&E-stained longitudinal sections of skin samples.

IL-6 = experiment: LPS-induced IL-6 expression in mouse bone marrow-derived dendritic cells, ELISA; assay type: cell-based; settings: for IL-6 expression in LPS-stimulated dendritic cells: LPS 100 ng/ml plus BrD1 at different concentrations, 24 h
From the text: For mouse bone marrow-derived DCs (BMDCs), five to six-week-old female C57BL/6JNarl mice were purchased from the National Laboratory Animal Center, Taiwan and kept under SPF conditions. BMDCs were generated from bone marrow cells of C57BL/6 mice as described previously (Yin S Y, Wang W H, Wang B X, Aravindaram K, Hwang P I, Wu H M, Yang N S. BMC genomics 2010, 11:612). In brief, bone marrow was isolated from femurs and tibiae which were then flushed with RPMI-1640 medium using a syringe with a 0.45-mm needle on Day 0. Red blood cells in suspension were lysed for […] with ACK lysing buffer (150 mM NH4Cl, 1.0 mM KHCO3, 0.1 mM EDTA). Bone marrow cells were suspended at a density of 1×10^7 cells/30 ml in RPMI-1640 containing 10% FBS, 2 mM L-glutamine, 1% of nonessential amino acids, 100 U/mL penicillin and 100 μg/mL streptomycin supplemented with 20 ng/mL of mGM-CSF in 15-cm dishes at 37° C. with 5% CO2. On day 2, two-thirds of the medium was removed and 30 mL fresh medium with mGM-CSF was added to the cells. On day 5, culture plates were gently swirled and the floating and loosely adherent cells were discarded. Aliquots of 75% culture media were replenished with 20 ng/mL mGM-CSF and 20 ng/mL mIL-4. On day 7, mouse BMDCs (95% pure CD11b and MHC II) were harvested and incubated in RPMI 1640 medium containing 1 mM sodium pyruvate, 0.1 mM nonessential amino acids, 100 U/ml penicillin, 100 μg/ml streptomycin, and supplemented with 10% fetal bovine serum (Invitrogen, Carlsbad, Calif.) for 24 h at 37° C. with or without test chemicals in the presence or absence of LPS (100 ng/ml).
BMDCs were treated with or without test chemicals in the presence or absence of LPS (100 ng/ml) for 24 h at 37° C. Aliquots of supernatants from DC cultures were assayed for IL-6 and TNF-α using commercial ELISA kits (R&D Systems, Minneapolis, Minn.) following the manufacturer's recommendations.
Several studies have reported that the secretion of specific cytokines, including IL-1β, TNF-α and IL-6 by keratinocytes and various immune cells is involved in cutaneous inflammation (Nestle F O, Di Meglio P, Qin J Z, Nickoloff B J. Nature reviews Immunology 2009, 9:679-691; De Vry C G, Valdez M, Lazarov M, Muhr E, Buelow R, Fong T, Iyer S. J Invest Dermatol 2005, 125:473-481; Cumberbatch M, Dearman R J, Kimber I. Immunology 1996, 87:513-518). In order to investigate the anti-inflammatory effect of BrD1 on cytokine expression, mouse bone marrow-derived dendritic cells were used to evaluate the inhibitory effect of BrD1 on LPS-induced expressions of TNF-α and IL-6. In our time-course study for expression of TNF-α and IL-6, after LPS stimulation, a high expression of TNF-α and IL-6 was maintained at 24 h (FIG. 6A). We therefore chose 24 h as the time point at which to assess the expression of TNF-α and IL-6.

Akt = experiment: TPA-stimulated Akt phosphorylation in mouse skin, western blot; assay type: in vivo; settings: topical for 2 h after TPA
Method: Shaven abdominal skins of female C57BL/6JNarl mice were not treated or topically treated with vehicle (acetone, 200 μl/site) or TPA (10 nmol in 200 μl acetone/site) at indicated time points or treated first with TPA for 10 min, then with the indicated concentrations of BrD1 at the indicated time points. Abdominal skin samples were collected, homogenated and lysed to prepare total proteins. Protein samples were subsequently resolved by SDS-PAGE using a gradient gel. The resolved proteins were transferred to a PVDF Immobilon-P membrane (Millipore, Bedford, Calif.), and the membrane was blocked with 5% non-fat dry milk in PBST buffer (phosphate-buffered saline (PBS) containing 0.1% Tween 20) for 60 minutes at room temperature. The membranes were incubated overnight at 4° C. with commercially available antibodies (1:1000 dilutions). Loading of equal amounts of protein was assessed using mouse β-actin. The blots were rinsed three times with PBST buffer for 5 minutes. Washed blots were incubated with HRP-conjugated secondary antibody (1:100,000 dilution), then washed again three times with PBST buffer. […] Quantification of bands was performed using Image J software.
We therefore evaluated whether BrD1 could interfere with TPA-induced activation of Akt and Erk in inflamed skin. […] We thus determined the phosphorylation level of Akt, Erk, NF-κB and IκBα in skins subjected to different treatments. […]

`CCCC(=O)O[C@H]1C/C(C)=C\[C@@H]2OC(=O)[C@]3(C)O[C@]23[C@@H](OC(C)=O)[C@H]2[C@@H](C)[C@@H](O)C[C@H](OC(C)=O)[C@]2(C)[C@H]1OC(C)=O` [BrD1, excavatolide B] was tested, and the “skin thickness (TPA-induced edema)” value [1] was “substantially decreased the skin thickness”, the “skin thickness (TPA-induced edema)” value ([1]; listed as excavatolide B) was “substantially decreases the skin thickness” and the “inhibition of LPS-induced IL-6 expression (structure-activity relationship)” value (IL-6; DCs co-treated with LPS and BrDs at 20 μM) was “significantly inhibited the expression of cytokine IL-6”. For the same compound, the “IL-6 expression in LPS-stimulated dendritic cells” value (IL-6) was “strongly inhibited IL-6 expression”, the “IL-6 expression in LPS-stimulated dendritic cells” value (IL-6; listed as Excavatolide B) was “strongly inhibits IL-6 expression” and the “TPA-stimulated phosphorylation of Akt” value (Akt) was “significantly inhibited the TPA-stimulated phosphorylation of Akt”. For the same compound, the “TPA-stimulated phosphorylation of Akt” value (Akt; listed as excavatolide B) was “significantly inhibits the TPA-stimulated phosphorylation of Akt”.
